Assay [1] relates to Saccharomyces cerevisiae wild type strain BY4743. As to the kind of experiment: Combined gene expression and metabolite data mapped to KEGG reactions and pathways (AF1). The assay is classed as cell-based. The conditions noted are these: yeast. An excerpt:
In AF1, two different technologies were utilized: gene expression analysis (for examination of mRNA expression) and metabolite analysis. […] As noted previously, existing metabolic databases may be helpful in practicing the methods and systems of the present invention, but many databases include limitations that make their use in data analysis and pathway mapping less than straightforward. […] This caveat to KEGG makes it difficult to pinpoint the correct pathway when attempting to link a gene to a specific pathway. […] The pathway score indicates how meaningful the mapping is, or how likely it is to be correctly indicative of the pathway involved in the perturbation under examination. The method provides a pathway score based on perturbation levels of genes. and/or compounds and the information content of each gene and/or compound in the pathway, i.e., a pathway score indicates the extent to which other pathways are mapped to a gene/compound. For example, imagine that two genes are perturbed in a particular experiment. One gene maps to only one pathway, giving a high degree of probability that the perturbed pathway is the one identified in the mapping. The second gene maps to three pathways. In the later example, there is only one-third the probability that the pathway identified in the mapping is the one perturbed. The present invention provides a method for calculating the pathway scores, so that more weight is given to a score of a gene or compound that maps to only one pathway than to a score of a gene or compound that maps to multiple pathways. […] Where n=the total number of genes in the pathway; ipath—count=the number of pathways containing a gene; and j=the number of genes in the pathway that are perturbed. Another factor to be considered when weighting a pathway score is the degree of perturbation. Degree of perturbation can be calculated, for example, based on a number of standard deviations from a norm, and included in an equation such as the one shown above, so that not only the number of pathways is taken into account, but also accounts for the amount of gene transcript or compound present as compared to a control. Compounds were also linked to pathways using the KEGG database. KEGG links 676 compounds measured in AF1 to a total of 92 pathways. Of the 676 compounds under consideration, 77 were detected in the AF1 samples. […] The multiple mapping feature of KEGG makes it difficult to pinpoint the correct pathway when trying to link a compound to a specific pathway. […] A pathway score calculation is applied to the compounds to account for both information content (number of pathways a compound maps to) and perturbation level. […]

The next assay has as its system Magnaporthe grisea. The format is cell-based.
Assay [2] relates to Arabidopsis thaliana. As to the kind of experiment: Biochemical (metabolite) profiling by LC-MS and GC-MS of sprayed Arabidopsis (MOA1). The assay is classed as in vivo.
In assay [3] the test system is Arabidopsis thaliana. Description: Gene expression profiling (22,000 gene array) of sprayed Arabidopsis (MOA1). The assay is classed as in vivo. Particulars: for No. of Lethal Genes Altered: 1 hr.
The test system of assay [4] is Arabidopsis thaliana plants. Description: Phenotypic analysis of herbicide-treated Arabidopsis plants (SOA1). Particulars: for leafCurling (Dev.) / leafTwisting (Dev.) / leafWidth (Dev.) / matureLeafAnthocyanins (Dev.) / matureLeafChlorosis (Dev.) / matureLeafNecrosis (Dev.) / newLeafAnthocyanins (Dev.) / newLeafChlorosis (Dev.) / newLeafNecrosis (Dev.) / pointedLeaves (Dev.) / tMic (Dev.): SOA1, numeric value standardized to mock treated; for Symptom Class: three-week-old Arabidopsis plants treated with herbicide, phenotypes of FIG. 12. The assay is classed as in vivo.

[5] abbreviates: concentrations insufficient to inhibit growth.

Entries after “also recorded” stand apart in the source; their conditions may differ.

Take `OC(Cn1cncn1)(Cn1cncn1)c1ccc(F)cc1F` [Fluconazole]: the “# Reactions (Number Of Pathways Having at Least One Enzyme and One Compound Perturbed)” value in assay [1] is listed as 15.

On to `CS(=O)(=O)c1cc(C(F)(F)F)ccc1C(=O)c1cnoc1C1CC1` [Isoxaflutole], for which, in the assay with Magnaporthe grisea (setting [5]), the “M. grisea growth in minimal media” value is on record as “unaffected” and the “M. grisea growth in minimal plus tyrosine media” value is listed as “inhibited”. In addition, in the assay with Arabidopsis thaliana [2] (Arabidopsis, after one hour), the “tyrosine and phenylalanine relative to the control” value is listed as “up-regulated; also recorded: began to accumulate”. Also, in the assay with Arabidopsis thaliana [2] (Arabidopsis, early time points), the “Alpha-tocopherol levels relative to the control” value is reported as “not significantly changed”. For the same compound, in the assay on Arabidopsis thaliana [3], the “No. of Lethal Genes Altered” value came out at 15.

Consider `O=C(O)CNCP(=O)(O)O` [Glyphosate], for which, in the assay on Magnaporthe grisea, the “growth results of Unknown 4 and glyphosate compared” value is given as “nearly identical”. Further, in the assay on Magnaporthe grisea (1.0 mg/ml), the “Growth inhibition of M. grisea on inclusion of aromatic amino acids to the media” value is recorded as “remediated”. For the same compound, the “Growth of M. grisea with ammonium or glutamine as nitrogen source” value in the assay on Magnaporthe grisea (Tier 4) is “Little growth defect”. In assay [4], the “leafCurling (Dev.)” value was determined as 0, the “leafTwisting (Dev.)” value was 0, the “leafWidth (Dev.)” value is 0 and the “matureLeafAnthocyanins (Dev.)” value is 3. In addition, in assay [4], the “matureLeafChlorosis (Dev.)” value amounted to 1, the “matureLeafNecrosis (Dev.)” value was 3, the “newLeafAnthocyanins (Dev.)” value is 1 and the “newLeafChlorosis (Dev.)” value turned out to be 2. Moreover, in assay [4], the “newLeafNecrosis (Dev.)” value stood at 0, the “pointedLeaves (Dev.)” value amounted to 1, the “tMic (Dev.)” value is given as 2 and the “Symptom Class” value was 4. The “tyrosine (metabolite downstream from the SOA) relative to the control” value in the assay on Arabidopsis thaliana [2] (in vivo) is recorded as “decreased”.

Turning to `CC(=O)N1CCN(c2ccc(OCC3COC(Cn4ccnc4)(c4ccc(Cl)cc4Cl)O3)cc2)CC1` (stereo not drawn) [Ketoconazole], the “# Reactions (Number Of Pathways Having at Least One Enzyme and One Compound Perturbed)” value in assay [1] turned out to be 24.

`CP(=O)(O)CCC(N)C(=O)O` (stereo not drawn) [Glufosinate]: the “nitrogen sources M. grisea is able to utilize in the presence of the compound” value in the assay on Magnaporthe grisea is “only able to utilize glutamine and glutamate”. In assay [4], the “leafCurling (Dev.)” value stood at 2, the “leafTwisting (Dev.)” value is 1, the “leafWidth (Dev.)” value is listed as −2 and the “matureLeafAnthocyanins (Dev.)” value worked out at 0. In addition, in assay [4], the “matureLeafChlorosis (Dev.)” value worked out at 3, the “matureLeafNecrosis (Dev.)” value was determined as 0, the “newLeafAnthocyanins (Dev.)” value came out at 0 and the “newLeafChlorosis (Dev.)” value stood at 3. In addition, in assay [4], the “newLeafNecrosis (Dev.)” value is reported as 0, the “pointedLeaves (Dev.)” value is 1, the “tMic (Dev.)” value came out at 1 and the “Symptom Class” value is 3. For the same compound, the stress-related metabolites observed result in the assay with Arabidopsis thaliana [2] (in vivo) is on record as “Only a few, if any”. In addition, the “No. of Lethal Genes Altered” value in the assay on Arabidopsis thaliana [3] was determined as 10. In the assay with Arabidopsis thaliana [3] (in vivo), the “Regulated Genes Following Herbicide Treatment: Down” value came to 54.

The values are drawn from US20040024293A1, “Methods and systems for analyzing complex biological systems” (priority 2001, published 2004).
